The text below walks through data of US9399636B2, “Substituted dipyridylamines and uses thereof” (Genentech, Inc., priority 2012, dated 2016).

SMILES strings stand for the structures.

The test concerns the target T1, DLK (Homo sapiens, UniProt Q12852).
T1 construct: N-terminally GST-tagged DLK (catalytic domain amino acid 1-520) (Carna Bioscience); GST (N); purchased Carna Bioscience
T1 sequence (Q12852 1-520): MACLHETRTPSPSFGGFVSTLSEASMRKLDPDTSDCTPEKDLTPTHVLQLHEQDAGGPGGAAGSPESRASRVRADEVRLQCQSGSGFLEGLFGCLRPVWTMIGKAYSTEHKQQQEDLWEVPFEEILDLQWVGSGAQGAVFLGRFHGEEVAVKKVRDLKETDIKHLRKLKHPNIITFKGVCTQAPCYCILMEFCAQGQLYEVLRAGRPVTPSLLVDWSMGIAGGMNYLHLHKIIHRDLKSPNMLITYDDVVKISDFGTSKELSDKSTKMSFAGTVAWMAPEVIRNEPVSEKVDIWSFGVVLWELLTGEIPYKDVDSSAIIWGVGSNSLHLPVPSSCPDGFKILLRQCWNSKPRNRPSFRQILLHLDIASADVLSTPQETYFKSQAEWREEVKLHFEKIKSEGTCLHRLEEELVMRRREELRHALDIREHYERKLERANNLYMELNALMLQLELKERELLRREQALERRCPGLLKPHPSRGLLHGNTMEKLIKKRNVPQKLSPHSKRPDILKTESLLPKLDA
The test can be described thus: DLK TR-FRET assay. Format: biochemical. The following applies: 5 nM GST-tagged DLK (catalytic domain amino acid 1-520), 40 nM HIS-tagged MKK4 K131M substrate, 30 μM ATP, 60 minutes. On the procedure: DLK TR-FRET assay: DLK kinase reactions (20 μL) containing 5 nM N-terminally GST-tagged DLK (catalytic domain amino acid 1-520) (Carna Bioscience), 40 nM N-terminally HIS-tagged MKK4 K131M substrate, and 30 μM ATP in kinase reaction buffer (50 mM HEPES, pH 7.5, 0.01% Triton X-100, 0.01% Bovine γ-Globulins, 2 mM DTT, 10 mM MgCl2 and 1 mM EGTA), and testing compound 1:3 serial diluted starting at 20 uM were incubated at ambient temperature for 60 minutes in 384 well OptiPlate (Perkin Elmer). To quench kinase reactions and detect phosphorylated MKK4, 15 μL of TR-FRET antibody mixture containing 2 nM anti-phosphorylated MKK4 labeled with Europium cryptate (Cisbio) and 23 nM anti-HIS labeled with D2 (Cisbio) in detection buffer (25 mM Tris pH 7.5, 100 mM NaCl, 100 mM EDTA, 0.01% Tween-20, and 200 mM KF) was added to the reaction mixture. The detection mixture was incubated for 3 hours at ambient temperature and the TR-FRET was detected with an EnVision multilabel plate reader (Perkin-Elmer) using the LANCE/DELFIA Dual Enh label from Perkin-Elmer (excitation filter: UV2 (TRF) 320 and emission filters: APC 665 and Europium 615).
For orientation: In TR-FRET formats the signal depends on donor and acceptor labels being close together.
One may read the Ki as a dissociation constant, usually derived from enzyme kinetics or from competition with a known ligand. A higher Ki goes with weaker binding. `N#Cc1ccnc(Nc2cc(C3CCOCC3)cc(N3CC(F)C3)n2)c1` [Example 86, 2-[6-(3-Fluoro-azetidin-1-yl)-4-(tetrahydro-pyran-4-yl)-pyridin-2-ylamino]-isonicotinonitrile] registered a Ki of 11.9 nM. For `CC(=O)N1CCC(c2cc(Cl)nc(Nc3cc(C#N)ccn3)c2)CC1` [Example 65, 2-(1′-Acetyl-6-chloro-1′,2′,3′,4′,5′,6′-hexahydro-[4,4′]bipyridinyl-2-ylamino)-isonicotinonitrile] the value was 30 nM.

For the compound `FC(F)c1ccnc(Nc2cc(C3CCN(C4COC4)CC3)cc(N3CCC3)n2)c1` [Example 51, (6-Azetidin-1-yl-1′-oxetan-3-yl-1′,2′,3′,4′,5′,6′-hexahydro-[4,4′]bipyridinyl-2-yl)-(4-difluoromethyl-pyridin-2-yl)-amine], the Ki was found to be 2.4 nM.

`FC(F)c1ccnc(Nc2cc(C3CCN(C4COC4)CC3)cc(Cl)n2)c1` [Example 76, (6-Chloro-1′-oxetan-3-yl-1′,2′,3′,4′,5′,6′-hexahydro-[4,4′]bipyridinyl-2-yl)-(4-difluoromethyl-pyridin-2-yl)-amine] displayed a Ki of 16 nM. This Ki is about 6.7-fold higher than that of the compound before. For `N#Cc1ccnc(Nc2cc(C3CCN(C4COC4)CC3)cc(N3CC(F)(F)C3)n2)c1` [Example 89, 2-[6-(3,3-Difluoro-azetidin-1-yl)-1′-oxetan-3-yl-1′,2′,3′,4′,5′,6′-hexahydro-[4,4′]bipyridinyl-2-ylamino]-isonicotinonitrile] the value was 8 nM. For `C[C@@H]1CCCN1c1cc(C2CCN(CCO)CC2)cc(Nc2cc(C(F)(F)F)ccn2)n1` [Example 140, 2-[6′-((R)-2-Methyl-pyrrolidin-1-yl)-2′-(4-trifluoromethyl-pyridin-2-ylamino)-3,4,5,6-tetrahydro-2H-[4,4′]bipyridinyl-1-yl]-ethanol] the value was 0.17 nM; for `N#Cc1ccnc(Nc2cc(C3(C#N)CCNCC3)cc(N3CC(F)C3)n2)c1` [Example 34, 2′-(4-Cyano-pyridin-2-ylamino)-6′-(3-fluoro-azetidin-1-yl)-2,3,5,6-tetrahydro-1H-[4,4′]bipyridinyl-4-carbonitrile], 1.9 nM; for `N#CC1(c2cc(Nc3cc(C(F)F)ccn3)nc(N3CCC3)c2)CCOCC1` [Example 53, 4-[2-Azetidin-1-yl-6-(4-difluoro-methyl-pyridin-2-ylamino)-pyridin-4-yl]-tetrahydro-pyran-4-carbonitrile], 24 nM. In turn, `N#Cc1ccnc(Nc2cc(C3CCN(C4COC4)CC3)cc(N3CC4(CCOC4)C3)n2)c1` [Example 93, 2-[6-(6-Oxa-2-aza-spiro[3.4]oct-2-yl)-1′-oxetan-3-yl-1′,2′,3′,4′,5′,6′-hexahydro-[4,4′]bipyridinyl-2-ylamino]-isonicotinonitrile] had a Ki of 20 nM. For `COC1CN(c2cc(C3(C#N)CCOCC3)cc(Nc3cc(C(F)F)ccn3)n2)C1` [Example 54, 4-[2-(4-Difluoromethyl-pyridin-2-ylamino)-6-(3-methoxy-azetidin-1-yl)-pyridin-4-yl]-tetrahydro-pyran-4-carbonitrile] the value was 21 nM.

The compound `CC(=O)N1CCC(c2cc(Nc3cc(C#N)ccn3)nc(OC(C)C)c2)CC1` [Example 22, 2-(1′-Acetyl-6-isopropoxy-1′,2′,3′,4′,5′,6′-hexahydro-[4,4′]bipyridinyl-2-ylamino)-isonicotinonitrile] registered a Ki of 2.2 nM. Compared with the last compound, the Ki is about 9.5-fold lower.

In the case of `CN1CCC(C#N)(c2cc(Nc3cc(C#N)ccn3)nc(N3CC4CC4C3)c2)CC1` (stereo not drawn) [Example 36, 6′-(3-Aza-bicyclo[3.1.0]hex-3-yl)-2′-(4-cyano-pyridin-2-ylamino)-1-methyl-2,3,5,6-tetrahydro-1H-[4,4′]bipyridinyl-4-carbonitrile], the Ki is 0.17 nM. For `N#Cc1ccnc(Nc2cc(C3(C#N)CCOCC3)cc(N3CCC3)n2)c1` [Example 75, 2-[6-Azetidin-1-yl-4-(4-cyano-tetrahydro-pyran-4-yl)-pyridin-2-ylamino]-isonicotinonitrile] the value was 13 nM; for `N#Cc1ccnc(Nc2cc(C3CN(CC(F)(F)F)C3)cc(Cl)n2)c1` [Example 32, 2-{6-Chloro-4-[1-(2,2,2-trifluoro-ethyl)-azetidin-3-yl]-pyridin-2-ylamino}-isonicotinonitrile], 220 nM; for `N#Cc1ccnc(Nc2cc(C3(C#N)CCNCC3)cc(N3CC(F)(F)C3)n2)c1` [Example 37, 2′-(4-Cyano-pyridin-2-ylamino)-6′-(3,3-difluoro-azetidin-1-yl)-2,3,5,6-tetrahydro-1H-[4,4′]bipyridinyl-4-carbonitrile], 2.5 nM. `Cc1cc(C2CCN(C(=O)OC(C)(C)C)CC2)cc(Nc2cc(C#N)ccn2)n1` [Example 116, 2′-(4-Cyano-pyridin-2-ylamino)-6′-methyl-3,4,5,6-tetrahydro-2H-[4,4′]bipyridinyl-1-carboxylic acid tert-butyl ester] displayed a Ki of 215 nM. `FC(F)c1ccnc(Nc2cc(C3CCN(C4COC4)CC3)cc(N3CC4CC4C3)n2)c1` (stereo not drawn) [Example 50, [6-(3-Aza-bicyclo[3.1.0]hex-3-yl)-1′-oxetan-3-yl-1′,2′,3′,4′,5′,6′-hexahydro-[4,4′]bipyridinyl-2-yl]-(4-difluoromethyl-pyridin-2-yl)-amine] yielded a Ki of 1 nM. For `N#CC1(c2cc(Nc3cc(C(F)F)ccn3)nc(N3CCC(F)(F)C3)c2)CCOCC1` [Example 56, 4-[2-(4-Difluoromethyl-pyridin-2-ylamino)-6-(3,3-difluoro-pyrrolidin-1-yl)-pyridin-4-yl]-tetrahydro-pyran-4-carbonitrile] the value was 2.1 nM. For `Cc1cc(C2CCN(C(=O)C(F)(F)F)CC2)cc(Nc2cc(C#N)ccn2)n1` [Example 107, 2-[6-Methyl-1′-(2,2,2-trifluoro-acetyl)-1′,2′,3′,4′,5′,6′-hexahydro-[4,4′]bipyridinyl-2-ylamino]-isonicotinonitrile] the value was 120 nM. Consider `CC(=O)N1CCC(c2cc(Nc3cc(C4CC4)ccn3)nc(N3CCC[C@H]3C)c2)CC1` [Example 142, 1-[6′-(4-Cyclopropyl-pyridin-2-ylamino)-2′-((R)-2-methyl-pyrrolidin-1-yl)-3,4,5,6-tetrahydro-2H-[4,4′]bipyridinyl-1-yl]-ethanone], for which affinity was put at a Ki of 22 nM. Turning to `N#Cc1ccnc(Nc2cc(C3CN(C4COC4)C3)cc(Cl)n2)c1` [Example 24, 2-[6-Chloro-4-(1-oxetan-3-yl-azetidin-3-yl)-pyridin-2-ylamino]-isonicotinonitrile], the inhibition constant Ki turned out to be 140 nM. `Cc1ccnc(Nc2cc(C3CCNCC3)cc(N(C)CCO)n2)c1` [Example 144, 2-{Methyl-[6-(4-methyl-pyridin-2-ylamino)-1′,2′,3′,4′,5′,6′-hexahydro-[4,4′]bipyridinyl-2-yl]-amino}-ethanol] had a Ki of 61 nM. For `N#Cc1ccnc(Nc2cc(C3CCN(C4COC4)CC3)cc(N3CC4CC4C3)n2)c1` (stereo not drawn) [Example 92, 2-[6-(3-Aza-bicyclo[3.1.0]hex-3-yl)-1′-oxetan-3-yl-1′,2′,3′,4′,5′,6′-hexahydro-[4,4′]bipyridinyl-2-ylamino]-isonicotinonitrile] the value was 0.7 nM. With `N#Cc1ccnc(Nc2cc(C3(C#N)CCOCC3)cc(Cl)n2)c1` [Example 77, 2-[6-Chloro-4-(4-cyano-tetrahydro-pyran-4-yl)-pyridin-2-ylamino]-isonicotinonitrile], the Ki was determined as 190 nM.

Turning to `N#Cc1ccnc(Nc2cc(C3(C#N)CCNCC3)cc(N3CCC(F)(F)C3)n2)c1` [Example 31, 2′-(4-Cyano-pyridin-2-ylamino)-6′-(3,3-difluoro-pyrrolidin-1-yl)-2,3,5,6-tetrahydro-1H-[4,4′]bipyridinyl-4-carbonitrile], the Ki worked out at 0.17 nM. For `C[C@@H]1CCCN1c1cc(C2CCN(CCF)CC2)cc(Nc2cc(C(F)(F)F)ccn2)n1` [Example 137, [1′-(2-Fluoro-ethyl)-6-((R)-2-methyl-pyrrolidin-1-yl)-1′,2′,3′,4′,5′,6′-hexahydro-[4,4′]bipyridinyl-2-yl]-(4-trifluoromethyl-pyridin-2-yl)-amine] the value was 0.17 nM; for `CC1CCCN1c1cc(C2CCN(CC3CCOCC3)C2)cc(Nc2cc(C#N)ccn2)n1` (stereo not drawn) [Example 115, 2-{6-(2-Methyl-pyrrolidin-1-yl)-4-[1-(tetrahydro-pyran-4-ylmethyl)-pyrrolidin-3-yl]-pyridin-2-ylamino}-isonicotinonitrile], 0.09 nM.
